The values that follow come from article PMC11878239, “Biochemical investigations using mass spectrometry to monitor JMJD6-catalysed hydroxylation of multi-lysine containing bromodomain-derived substrates” (RSC Chemical Biology, 2025).

A short description of data set [1]: retention on SPE cartridges. The data set is classed as physicochemical. As to conditions: C4 SPE cartridge. An excerpt: (§1) The JMJD6-catalysed hydroxylation of the BRD-derived substrate peptide was monitored at ambient temperature by SPE-MS using a RapidFire RF 365 high-throughput sampling robot (Agilent) attached to an iFunnel Agilent 6550 accurate mass quadrupole time-of-flight (Q-TOF) mass spectrometer, which was operated in the positive ionization mode. Assay samples were aspirated under vacuum for 0.4 s, then loaded onto a C4 solid phase extraction (SPE) cartridge. After loading, the C4 SPE cartridge was washed with 0.1%v/v aqueous formic acid to remove non-volatile buffer salts (5 s, 1.5 mL min^−1). The peptide was eluted from the SPE cartridge with 0.1%v/v aqueous formic acid in 75/25v/v acetonitrile/water into the mass spectrometer (5 s, 1.6 mL min^−1) and the SPE cartridge re-equilibrated with 0.1%v/v aqueous formic acid (1 s, 1.25 mL min^−1).

The target of data set [2] is T1, full-length His6-JMJD6 (Homo sapiens, UniProt Q6NYC1).
T1 construct: An enzyme mixture (10 μL) containing full-length His6-JMJD6 (5 μM; final concentration: 0.05 μM); made in house; host or cells: Escherichia coli BL21 (DE3), pET-28a(+) plasmid
Description: SPE-MS kinetics of JMJD6-catalysed lysyl hydroxylation (2OG, Fe(II), LAA, BRD-derived peptides). The data set is classed as biochemical. The following applies: for tri- or higher-order hydroxylation: 0.05 μM JMJD6, SPE-MS time courses.

The target in data set [3] is T1, full-length His6-JMJD6. Description: SPE-MS kinetics of JMJD6 for O2. The data set is classed as biochemical. As to the method:
Recombinant human JMJD6 (full length with a N-terminal His6-tag) was produced in Escherichia coli BL21 (DE3) cells using a pET-28a(+) plasmid and purified by standard Ni(II)-affinity size-exclusion chromatography, as previously reported.[40] […] Purified JMJD6 was stored at −78 °C; fresh aliquots were used for all JMJD6 assays.
Assays to determine the kinetic parameters of JMJD6 for O2 were performed in 2 mL gas-tight glass vials (Sigma-Aldrich) in independent triplicates. 50 mM Tris buffer (pH 7.5; 0.95 mL) was incubated in a 2 mL gas-tight glass vial at 37 °C for 30 min with a fixed O2 concentration (in N2; specified in Fig S9, ESI ^†), adjusted using a mass flow controller. […] The JMJD6-catalysed reaction was performed at 37 °C at a fixed O2 concentration and was stopped after the reaction time specified (Fig. S9, ESI ^†) by the addition of 20%v/v aqueous formic acid (100 μL) and analysed by SPE-MS. The %-concentration of O2 in N2, adjusted with a mass flow controller, was converted into an O2 concentration [μM] by calibration using a standard (i.e., y[μM] = 9.026·x[%]).[100] Data were analysed by SPE-MS as described above to calculate apparent JMJD6 kinetic parameters for O2.

The target of data set [4] is T1, full-length His6-JMJD6. Nature of the data set: SPE-MS time-course of JMJD6-catalysed hydroxylation of BRD-derived peptides. In kind it is biochemical. The following applies: 0.05 μM JMJD6, 2 μM peptide, 2OG 200 μM, FAS 2 μM, LAA 100 μM, Tris 50 mM pH 7.5. The method, then: Fig. 2 JMJD6-catalysed hydroxylation of homologous 40 mer peptides derived from bromodomain-containing proteins BRD2, BRD3, and BRD4. (a)–(c) Red MS spectra: JMJD6-catalysed hydroxylation after 10 min of (a) BRD2_520–559, (b) BRD3_463–502, and (c) BRD4_511–550. Black MS spectra: no enzyme controls. (d)–(f) JMJD6-catalysed hydroxylation of (d) BRD2_520–559, (e) BRD3_463–502, and (f) BRD4_511–550 showing the relative abundance of the non-hydroxylated substrate (orange circles), mono-hydroxylated product (green squares), di-hydroxylated product (purple triangles) and tri-hydroxylated product (light blue diamonds) over time. Data are means of three independent runs (n = 3; means ± SD).
as §1
Peaks corresponding to the m/z +5 charge states of the BRD-derived substrate peptide and the hydroxylated product peptides were extracted from the ion chromatogram and integrated using RapidFire Integrator 4.3.0 (Agilent). Peak area data were exported into Microsoft Excel and used to calculate the relative abundance of the mono-hydroxylated product peptide using the following equation:
% of mono-hydroxylated product peptide = 100 × (integral of mono-hydroxylated product peptide)/(integral of non-hydroxylated substrate peptide + sum of integrals of all hydroxylated product peptides). Note that for the time-period used to calculate initial reaction velocities, negligible amounts of multi-hydroxylated product peptide were observed (<5%); therefore, the sum of integrals of all hydroxylated product peptides ≈ the integral of the mono-hydroxylated product peptide.

Entries after “also recorded” stand apart in the source; their conditions may differ.

Regarding “LAELQEQLKAVHEQLAALSQPQQNKPKKKEKDKKEKKKEK [BRD4_511–550, 40-mer peptide fragment derived from human BRD4, JMJD6 substrate, prepared by SPPS]”, in data set [1], the “retention on SPE cartridge” value is reported as “efficiently retained on a C4 SPE cartridge”. Moreover, the “tri- or higher-order hydroxylation” value was “negligible levels of BRD4_511–550 hydroxylations beyond mono-hydroxylation” on full-length His6-JMJD6 [2] (ambient temperature) and “No evidence for triple; also recorded: No evidence for triple (or higher order)” on full-length His6-JMJD6 [2] (ambient temperature, listed as BRD4511-550). In addition, at full-length His6-JMJD6 [2] (BRD peptide substrate varied, 0.05 μM full-length His6-JMJD6, 2OG 200 μM, FAS 2 μM, LAA 100 μM, 50 mM Tris pH 7.5, ambient temperature, mono-hydroxylation, substrate inhibition fit, mean ± SD n = 3), the “apparent maximum velocity v^app max” value stood at 5.8 ± 1.2 nM/s. Also, the K m at full-length His6-JMJD6 [2] (BRD peptide substrate varied, 0.05 μM full-length His6-JMJD6, 2OG 200 μM, FAS 2 μM, LAA 100 μM, 50 mM Tris pH 7.5, ambient temperature, substrate inhibition fit, mean ± SD n = 3, read-out: Michaelis constant Km (K^app m)) was 620 ± 260 nM. Moreover, the “turnover number kcat (k^app cat)” value on full-length His6-JMJD6 [2] (BRD peptide substrate varied, 0.05 μM full-length His6-JMJD6, 2OG 200 μM, pH 7.5, SPE-MS, calculated from v^app max assuming active JMJD6 = total enzyme, n = 3) is 0.12 ± 0.02 s⁻¹. For the same sequence, the “catalytic efficiency kcat/Km” value on full-length His6-JMJD6 [2] (BRD peptide substrate varied, 0.05 μM full-length His6-JMJD6, 2OG 200 μM, pH 7.5, SPE-MS, n = 3) was determined as 190 ± 80 mM⁻¹ s⁻¹. Further, the “relative abundance of mono-hydroxylated peptide at plateau” value on full-length His6-JMJD6 [2] (absence of LAA, after ~10 min, 50 nM JMJD6, 2OG 200 μM, FAS 2 μM, peptide 2 μM, pH 7.5, n = 3) is listed as around 15%. In addition, the “substrate inhibition of JMJD6 catalysis” value on full-length His6-JMJD6 [2] (high substrate concentrations (>2 μM)) is “inhibit JMJD6 catalysis”. Further, on full-length His6-JMJD6 [3] ([O2] < 2.5%), the “JMJD6-catalysed hydroxylation at low O2” value is given as “inhibited at low oxygen concentrations; also recorded: sensitive to low O2 concentrations”. Also, the “di- or higher-order hydroxylation” value at full-length His6-JMJD6 [3] (varied O2, 37 °C, 60 or 90 s) is listed as “no evidence for di- (or higher order) hydroxylation”. The “number of hydroxylation products observed (+16 Da mass shifts)” value on full-length His6-JMJD6 [4] (initial time-course, n = 3) is “two”. Also, on full-length His6-JMJD6 [4] (time-course, SPE-MS), the “hydroxylation by JMJD6 (in words)” value was “efficiently hydroxylated by isolated recombinant JMJD6; also recorded: mono-hydroxylated more efficiently than BRD3_463–502 whilst showing substantially lower levels of di-hydroxylation and no tri-hydroxylation by comparison with BRD2_520–559; also recorded: multiple hydroxylations”.
